Assay: Oxidative degradation of amorphous and polymorphic forms of atorvastatin at 80° C. in air and oxygen (liquid chromatography)
Format: physicochemical
Details: hemicalcium salt; for Sensitivity to oxygen and oxidation (conclusion): from 80° C., 3 days, air/oxygen study; for Increase of degradation products %: in respect to reference samples stored at 4° C.
Protocol: The influence of oxygen on occurrence of degradation products of amorphous and four polymorphic forms of atorvastatin was investigated. The samples of amorphous atorvastatin and polymorphic forms I to IV of atorvastatin were exposed at 80° C. in normal (air) and oxygen atmosphere for 3 days. The assay of oxidation products was determined by liquid chromatography. All of the chosen forms of atorvastatin stored at 4° C. were analyzed as the reference samples.

[1] = stored at 80° C. 3 days in normal (air) atmosphere
[2] = stored at 80° C. 3 days in oxygen atmosphere

| Structure (SMILES) | Sensitivity to oxygen and oxidation (conclusion) (listed as amorphous atorvastatin) | Increase of degradation products % [1] [%] | Increase of degradation products % [2] [%] | Sensitivity to oxygen and oxidation (conclusion) |
| --- | --- | --- | --- | --- |
| CC(C)c1c(C(=O)Nc2ccccc2)c(-c2ccccc2)c(-c2ccc(F)cc2)n1CC[C@@H](O)C[C@@H](O)CC(=O)O.CC(C)c1c(C(=O)Nc2ccccc2)c(-c2ccccc2)c(-c2ccc(F)cc2)n1CC[C@@H](O)C[C@@H](O)CC(=O)O.CC(C)c1c(C(=O)Nc2ccccc2)c(-c2ccccc2)c(-c2ccc(F)cc2)n1CC[C@@H](O)C[C@@H](O)CC(=O)[O-].CC(C)c1c(C(=O)Nc2ccccc2)c(-c2ccccc2)c(-c2ccc(F)cc2)n1CC[C@@H](O)C[C@@H](O)CC(=O)[O-].[Ca+2] (relative stereo) [Amorphous ATV, (R-(R*,R*))-2-(4-fluorophenyl-beta, delta-dihydroxy-5-(1-methylethyl)-3-phenyl-4-((phenylamino)carbonyl)-1H-pyrrole-1-heptanoic acid hemicalcium salt] | highly sensitive to oxidation | 1.04 | 3.4 |  |
| CC(C)c1c(C(=O)Nc2ccccc2)c(-c2ccccc2)c(-c2ccc(F)cc2)n1CC[C@@H](O)C[C@@H](O)CC(=O)O.CC(C)c1c(C(=O)Nc2ccccc2)c(-c2ccccc2)c(-c2ccc(F)cc2)n1CC[C@@H](O)C[C@@H](O)CC(=O)O.CC(C)c1c(C(=O)Nc2ccccc2)c(-c2ccccc2)c(-c2ccc(F)cc2)n1CC[C@@H](O)C[C@@H](O)CC(=O)[O-].CC(C)c1c(C(=O)Nc2ccccc2)c(-c2ccccc2)c(-c2ccc(F)cc2)n1CC[C@@H](O)C[C@@H](O)CC(=O)[O-].[Ca+2] (relative stereo) [Crystalline form I, (R-(R*,R*))-2-(4-fluorophenyl-beta, delta-dihydroxy-5-(1-methylethyl)-3-phenyl-4-((phenylamino)carbonyl)-1H-pyrrole-1-heptanoic acid hemicalcium salt] |  | 0.04 | 0.07 | stable to oxygen and oxidation |
| CC(C)c1c(C(=O)Nc2ccccc2)c(-c2ccccc2)c(-c2ccc(F)cc2)n1CC[C@@H](O)C[C@@H](O)CC(=O)O.CC(C)c1c(C(=O)Nc2ccccc2)c(-c2ccccc2)c(-c2ccc(F)cc2)n1CC[C@@H](O)C[C@@H](O)CC(=O)O.CC(C)c1c(C(=O)Nc2ccccc2)c(-c2ccccc2)c(-c2ccc(F)cc2)n1CC[C@@H](O)C[C@@H](O)CC(=O)[O-].CC(C)c1c(C(=O)Nc2ccccc2)c(-c2ccccc2)c(-c2ccc(F)cc2)n1CC[C@@H](O)C[C@@H](O)CC(=O)[O-].[Ca+2] (relative stereo) [Crystalline form II, (R-(R*,R*))-2-(4-fluorophenyl-beta, delta-dihydroxy-5-(1-methylethyl)-3-phenyl-4-((phenylamino)carbonyl)-1H-pyrrole-1-heptanoic acid hemicalcium salt] |  | 0.25 | 0.71 | slightly sensitive to oxidation |
| CC(C)c1c(C(=O)Nc2ccccc2)c(-c2ccccc2)c(-c2ccc(F)cc2)n1CC[C@@H](O)C[C@@H](O)CC(=O)O.CC(C)c1c(C(=O)Nc2ccccc2)c(-c2ccccc2)c(-c2ccc(F)cc2)n1CC[C@@H](O)C[C@@H](O)CC(=O)O.CC(C)c1c(C(=O)Nc2ccccc2)c(-c2ccccc2)c(-c2ccc(F)cc2)n1CC[C@@H](O)C[C@@H](O)CC(=O)[O-].CC(C)c1c(C(=O)Nc2ccccc2)c(-c2ccccc2)c(-c2ccc(F)cc2)n1CC[C@@H](O)C[C@@H](O)CC(=O)[O-].[Ca+2] (relative stereo) [Crystalline form III, (R-(R*,R*))-2-(4-fluorophenyl-beta, delta-dihydroxy-5-(1-methylethyl)-3-phenyl-4-((phenylamino)carbonyl)-1H-pyrrole-1-heptanoic acid hemicalcium salt] |  | 0.11 | 0.47 | slightly sensitive to oxidation |
| CC(C)c1c(C(=O)Nc2ccccc2)c(-c2ccccc2)c(-c2ccc(F)cc2)n1CC[C@@H](O)C[C@@H](O)CC(=O)O.CC(C)c1c(C(=O)Nc2ccccc2)c(-c2ccccc2)c(-c2ccc(F)cc2)n1CC[C@@H](O)C[C@@H](O)CC(=O)O.CC(C)c1c(C(=O)Nc2ccccc2)c(-c2ccccc2)c(-c2ccc(F)cc2)n1CC[C@@H](O)C[C@@H](O)CC(=O)[O-].CC(C)c1c(C(=O)Nc2ccccc2)c(-c2ccccc2)c(-c2ccc(F)cc2)n1CC[C@@H](O)C[C@@H](O)CC(=O)[O-].[Ca+2] (relative stereo) [Crystalline form IV, (R-(R*,R*))-2-(4-fluorophenyl-beta, delta-dihydroxy-5-(1-methylethyl)-3-phenyl-4-((phenylamino)carbonyl)-1H-pyrrole-1-heptanoic acid hemicalcium salt] |  | 1.14 | 3.67 | highly sensitive to oxidation |

From US9907757B2, “Coated particles and pharmaceutical dosage forms” (Lek Pharmaceuticals d.d., priority 2003, dated 2018)
